Measured values: patent US20030203000A1, “Modulation of therapeutic agent release from a polymeric carrier using solvent-based techniques” (priority 2002, published 2003)

Test: paclitaxel release profile from block-copolymer-coated stents in PBS with 0.5% Tween 20
Format: physicochemical
Details: release in PBS with 0.5% Tween 20, FIG. 1
Description: A solution is provided that contains the following: 99 wt % solvent system, 0.25 wt % paclitaxel and 0.75 wt % block copolymer. The copolymer is synthesized using known techniques such as those described in U.S. Pat. No. 5,741,331, U.S. Pat. No. 4,946,899 and U.S. Ser. No. 09/734,639. The solvent system consists of tetrahydrofuran (THF) and toluene, which are provided in varying ratios in this example. The solution is provided by (1) mixing the paclitaxel and tetrahydrofuran, (2) adding the copolymer, (3) adding the toluene, (4) thoroughly mixing (e.g., overnight), and (5) filtering.
The solution is then placed in a syringe pump and fed to a spray nozzle. A stent is mounted onto a holding device parallel to the nozzle and, if desired, rotated to ensure uniform coverage. Depending on the spray equipment used, either the component or spray nozzle can be moved while spraying such that the nozzle moves along the component while spraying for one or more passes.
After a coating is formed in this fashion, it is dried, for example, by placing it in a preheated oven for 30 minutes at 65° C., followed by 3 hours at 70° C.
Three coated stents are formed in this manner using (in addition to 0.25 wt % paclitaxel and 0.75 wt % block copolymer) the following solvent species in the following relative amounts: (T) 99 wt % THF, (2) 75 wt % THF, 24 wt % toluene, (3) 50 wt % THF, 49 wt % toluene, (4) 25 wt % THF, 74 wt % toluene, (5) 5 wt % THF, 94 wt % toluene. Release rate as a function of time and cumulative release as a function of time (referred to herein as the “release profile”) were then measured in PBS with 0.5% Tweeng 20 (polyoxyethylene(20) sorbitan monolaurate) available from Sigma-Aldrich. The results are graphically illustrated in FIG. 1.

paclitaxel release (release profile) (coating formed from higher THF-to-toluene ratios in the solvent system): more accelerated paclitaxel release
paclitaxel release (release profile) (coating formed from lower THF-to-toluene ratios in the solvent system): more extended paclitaxel release
paclitaxel release (release rate and cumulative release as a function of time) (stent coating of 0.25 wt % paclitaxel and 0.75 wt % block copolymer, THF solvent system with toluene added): reduced by the addition of toluene
SMILES: CC(=O)O[C@H]1C(=O)[C@@]2(C)[C@H]([C@H](OC(=O)c3ccccc3)[C@]3(O)C[C@H](OC(=O)[C@H](O)[C@@H](NC(=O)c4ccccc4)c4ccccc4)C(C)=C1C3(C)C)[C@]1(OC(C)=O)CO[C@@H]1C[C@@H]2O [paclitaxel]
